Measured values as given in patent US8106055B2, “Substituted amide compounds” (Gruenenthal GmbH, priority 2007, dated 2012).

molecular target: T1, bradykinin 1 receptor (B1R) of the rat (Rattus norvegicus, UniProt P97583); assay: Functional investigation on the rat bradykinin 1 receptor (B1R), Ca2+ FLIPR assay in CHO K1 rB1R cells; format: cell-based; conditions: B1R antagonism rat; test substance 10 μM; Ca2+ FLIPR, CHO K1 rB1R cells
T1 construct: expressed in transfected cells; host or cells: CHO K1 cells
T1 sequence (P97583 1-337): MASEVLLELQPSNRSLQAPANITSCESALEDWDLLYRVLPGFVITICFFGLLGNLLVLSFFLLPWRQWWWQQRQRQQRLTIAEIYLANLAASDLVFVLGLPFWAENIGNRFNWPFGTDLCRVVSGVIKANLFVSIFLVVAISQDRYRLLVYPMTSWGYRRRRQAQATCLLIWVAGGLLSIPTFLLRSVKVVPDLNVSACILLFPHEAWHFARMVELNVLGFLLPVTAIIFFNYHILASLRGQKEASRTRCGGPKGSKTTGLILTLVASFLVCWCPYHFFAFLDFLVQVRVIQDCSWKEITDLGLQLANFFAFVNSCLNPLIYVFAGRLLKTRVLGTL
Outline: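 Stably transfected CHO K1 cells loaded with Fluo-4; FLIPR Ca2+ fluorescence peak (ex 488/em 540 nm). Compound added first (agonism vs Lys-Des-Arg9-bradykinin ≥50 nM human, Des-Arg9-bradykinin 10 μM rat), then after 10-20 min agonist at EC80; antagonism as % inhibition, IC50 from concentration series, n=2-3, N≥2.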

SMILES	B1R Ant. r [10 μM] % Inhibition [%]
COc1ccc(S(=O)(=O)N2CCCCC2COCC(=O)NCC2CCC(C(CCc3ccccc3)N(C)C)CC2)c(OC)c1 (stereo not drawn) [Example 420]	2
CN(C)C(CCc1ccccc1)C1CCC(CNC(=O)COCCN(C)S(=O)(=O)c2c(Cl)cccc2Cl)CC1 (stereo not drawn) [Example 476]	74
COc1ccc(S(=O)(=O)N2CCCCC2COCC(=O)NCC2CCC(C(CCc3ccccc3)N(C)C)CC2)c(OC)c1 (stereo not drawn) [Example 486]	20
CN(C)C(c1cccc(F)c1)C1CCC(CCNC(=O)COCCC2CCN(S(=O)(=O)c3ccccc3)CC2)CC1 (stereo not drawn) [Example 543]	15
CN(C)C(CCc1ccccc1)C1CCC(CNC(=O)COCC2CCCN(S(=O)(=O)c3ccccc3)C2)CC1 (stereo not drawn) [Example 544]	38
COc1cc(C)c(S(=O)(=O)N2CCC(OCC(=O)NCC3CCC(C(CCc4ccccc4)N(C)C)CC3)CC2)c(C)c1C (stereo not drawn) [Example 546]	59
COc1cc(C)c(S(=O)(=O)N(CCOCC(=O)NCCC2CCC(C(c3ccc(F)cc3)N(C)C)CC2)Cc2ccccc2)c(C)c1 (stereo not drawn) [Example 547]	30
COc1ccc(S(=O)(=O)N(C)CCOCC(=O)NC2CCC(C(c3ccc(F)cc3)N(C)C)CC2)cc1OC (stereo not drawn) [Example 548]	11
COc1ccc(S(=O)(=O)N(C)CCOCC(=O)NC2CCC(C(c3ccc(F)cc3)N(C)C)CC2)cc1 (stereo not drawn) [Example 549]	40
COc1ccc(S(=O)(=O)N(C)CCOCC(=O)NCC2CCC(C(CCc3ccccc3)N(C)C)CC2)cc1 (stereo not drawn) [Example 550]	50
COc1cc(C)c(S(=O)(=O)N2CCCC(OCC(=O)NCC3CCC(C(CCc4ccccc4)N(C)C)CC3)C2)c(C)c1C (stereo not drawn) [Example 551]	36
CN(C)C(CCc1ccccc1)C1CCC(CNC(=O)COC2CCN(S(=O)(=O)c3cccc(C(F)(F)F)c3)C2)CC1 (stereo not drawn) [Example 552]	26
CN(C)C(c1ccc(F)cc1)C1CCC(CCNC(=O)COC2CCN(S(=O)(=O)c3ccccc3)CC2)CC1 (stereo not drawn) [Example 553]	−14
COc1cc(C)c(S(=O)(=O)N(CCOCC(=O)NCCC2CCC(C(c3ccc(F)cc3)N(C)C)CC2)Cc2ccccc2)c(C)c1C (stereo not drawn) [Example 554]	−11
COc1ccc(S(=O)(=O)N2CCCCC2COCC(=O)NC2CCC(C(c3ccc(F)cc3)N(C)C)CC2)cc1OC (stereo not drawn) [Example 555]	0
CN(C)C(CCc1ccccc1)C1CCC(CNC(=O)COCCN(C)S(=O)(=O)c2cccc(C(F)(F)F)c2)CC1 (stereo not drawn) [Example 556]	20
CN(C)C(CCc1ccccc1)C1CCC(CNC(=O)COC2CCN(S(=O)(=O)c3ccc(Cl)cc3)C2)CC1 (stereo not drawn) [Example 557]	29
CN(C)C(CCc1ccccc1)C1CCC(CNC(=O)COC2CCCN(S(=O)(=O)c3ccccc3)C2)CC1 (stereo not drawn) [Example 558]	12

SMILES	B1R Ant. r [10 μM] % Inhibition [%]
COc1ccc(S(=O)(=O)N2CCCCC2COCC(=O)NCC2CCC(C(CCc3ccccc3)N(C)C)CC2)cc1OC (stereo not drawn) [Example 559]	−12
COc1cc(C)c(S(=O)(=O)N(CCOCC(=O)NCC2CCC(C(c3ccc(Cl)cc3)N(C)C)CC2)Cc2ccccc2)c(C)c1C (stereo not drawn) [Example 560]	−5
COc1cc(C)c(S(=O)(=O)N2CCC(CCOCC(=O)NCCC3CCC(C(c4ccc(Cl)cc4)N(C)C)CC3)CC2)c(C)c1C (stereo not drawn) [Example 561]	−12
COc1cc(C)c(S(=O)(=O)N(CCOCC(=O)NCC2CCC(C(CCc3ccccc3)N(C)C)CC2)Cc2ccccc2)c(C)c1C (stereo not drawn) [Example 562]	23
COc1cc(C)c(S(=O)(=O)N(CCOCC(=O)NCC2CCC(C(c3ccc(F)cc3)N(C)C)CC2)Cc2ccccc2)c(C)c1C (stereo not drawn) [Example 563]	−16
COc1cc(C)c(S(=O)(=O)N2CCC(OCC(=O)NCC3CCC(C(CCc4ccccc4)N(C)C)CC3)C2)c(C)c1 (stereo not drawn) [Example 565]	104
COc1ccc(S(=O)(=O)N2CCC(OCC(=O)NCC3CCC(C(CCc4ccccc4)N(C)C)CC3)C2)cc1OC (stereo not drawn) [Example 566]	22
CN(C)C(CCc1ccccc1)C1CCC(CNC(=O)COCCN(C)S(=O)(=O)c2ccc(OC(F)(F)F)cc2)CC1 (stereo not drawn) [Example 567]	42
CN(C)C(c1ccc(F)cc1)C1CCC(CNC(=O)COC2CCN(S(=O)(=O)c3ccccc3)CC2)CC1 (stereo not drawn) [Example 568]	12
COc1cc(C)c(S(=O)(=O)N(CCOCC(=O)NCCC2CCC(C(c3ccc(Cl)cc3)N(C)C)CC2)Cc2ccccc2)c(C)c1 (stereo not drawn) [Example 569]	9
COc1ccc(S(=O)(=O)N2CCCCC2COCC(=O)NCC2CCC(C(CCc3ccccc3)N(C)C)CC2)cc1OC (stereo not drawn) [Example 570]	4
COc1ccc(S(=O)(=O)N(C)CCOCC(=O)NCC2CCC(C(CCc3ccccc3)N(C)C)CC2)cc1OC (stereo not drawn) [Example 571]	15
COc1ccc(S(=O)(=O)N2CCCC2COCC(=O)NCC2CCC(C(CCc3ccccc3)N(C)C)CC2)cc1 (stereo not drawn) [Example 572]	62
CN(C)C(CCc1ccccc1)C1CCC(CNC(=O)COC2CCN(S(=O)(=O)c3ccccc3)C2)CC1 (stereo not drawn) [Example 573]	14
CN(C)C(CCc1ccccc1)C1CCC(CNC(=O)COC2CCN(S(=O)(=O)c3ccc(F)cc3)C2)CC1 (stereo not drawn) [Example 574]	26
CN(C)C(c1ccc(Cl)cc1)C1CCC(CCNC(=O)COCCN(C)S(=O)(=O)c2ccc(OC(F)(F)F)cc2)CC1 (stereo not drawn) [Example 575]	26
COc1cc(C)c(S(=O)(=O)N(CCOCC(=O)NCCC2CCC(C(c3ccc(Cl)cc3)N(C)C)CC2)Cc2ccccc2)c(C)c1C (stereo not drawn) [Example 576]	3

same assay, conditions: CHO-K1, B1R antagonism rat; test substance 10 μM; Ca2+ FLIPR, CHO K1 rB1R cells; read-out: B1R Ant. r [10 μM] % Inhibition

SMILES	inhibition at 10 µM [%]
COc1ccc(S(=O)(=O)N2CCCCC2COCC(=O)NCCC2CCC(C(c3cccs3)N(C)C)CC2)cc1OC (stereo not drawn) [Example 120, 2-((1-(3,4-dimethoxyphenylsulfonyl)piperidin-2-yl)methoxy)-N-(2-(4-((dimethylamino)(thiophen-2-yl)methyl)cyclohexyl)ethyl)acetamide]	-14
Cc1ccc(S(=O)(=O)N2CCC(OCC(=O)NCC3CCC(C(c4ccccc4)N(C)C)CC3)C2)cc1 (stereo not drawn) [Example 125, N-((4-((dimethylamino)(phenyl)methyl)cyclohexyl)methyl)-2-(1-tosylpyrrolidin-3-yloxy)acetamide]	6
CN(C)C(c1cccc(F)c1)C1CCC(CCNC(=O)COCCN(C)S(=O)(=O)c2ccc(Cl)cc2Cl)CC1 (stereo not drawn) [Example 126, 2-(2-(2,4-dichloro-N-methylphenylsulfonamido)ethoxy)-N-(2-(4-((dimethylamino)(3-fluorophenyl)methyl)cyclohexyl)ethyl)acetamide]	59
COc1ccc(S(=O)(=O)N(C)CCOCC(=O)NCC2CCC(C(c3cccs3)N(C)C)CC2)cc1OC (stereo not drawn) [Example 127, 2-(2-(3,4-Dimethoxy-N-methylphenylsulfonamido)ethoxy)-N-((4-((dimethylamino)(thiophen-2-yl)methyl)cyclohexyl)methyl)acetamide]	21
COc1ccc(S(=O)(=O)N(C)CCOCC(=O)NCCC2CCC(C(c3cccs3)N(C)C)CC2)cc1 (stereo not drawn) [Example 128, N-(2-(4-((dimethylamino)(thiophen-2-yl)methyl)cyclohexyl)ethyl)-2-(2-(4-methoxy-N-methylphenylsulfonamido)ethoxy)acetamide]	46
COc1cc(C)c(S(=O)(=O)N2CCCC(OCC(=O)NCCC3CCC(C(c4cccs4)N(C)C)CC3)C2)c(C)c1C (stereo not drawn) [Example 130, N-(2-(4-((dimethylamino)(thiophen-2-yl)methyl)cyclohexyl)ethyl)-2-(1-(4-methoxy-2,3,6-trimethylphenylsulfonyl)piperidin-3-yloxy)acetamide]	15
COc1cc(C)c(S(=O)(=O)N2CCC(CCOCC(=O)NCC3CCC(C(c4cccs4)N(C)C)CC3)CC2)c(C)c1C (stereo not drawn) [Example 131, N-((4-((dimethylamino)(thiophen-2-yl)methyl)cyclohexyl)methyl)-2-(2-(1-(4-methoxy-2,3,6-trimethylphenylsulfonyl)piperidin-4-yl)ethoxy)acetamide]	-20
CN(C)C(c1cccc(F)c1)C1CCC(NC(=O)COC2CCCCC2N(C)S(=O)(=O)c2ccc(Cl)c(Cl)c2)CC1 (stereo not drawn) [Example 132, 2-(2-(3,4-dichloro-N-methylphenylsulfonamido)cyclohexyloxy)-N-(4-((dimethylamino)(3-fluorophenyl)methyl)cyclohexyl)acetamide]	2
COc1ccc(S(=O)(=O)N2CCCCC2COCC(=O)NCC2CCC(C(c3cccs3)N(C)C)CC2)cc1OC (stereo not drawn) [Example 133, 2-((1-(3,4-Dimethoxyphenylsulfonyl)piperidin-2-yl)methoxy)-N-((4-((dimethylamino)(thiophen-2-yl)methyl)cyclohexyl)methyl)acetamide]	7
CN(C)C(c1ccccc1)C1CCC(NC(=O)COCCN(C)S(=O)(=O)c2c(Cl)cccc2Cl)CC1 (stereo not drawn) [Example 135, 2-(2-(2,6-dichloro-N-methylphenylsulfonamido)ethoxy)-N-(4-((dimethylamino)(phenyl)methyl)cyclohexyl)acetamide]	29
